# In ChEMBL document CHEMBL1156790, “Synthesis and structure-activity relationships of antitubercular 2-nitroimidazooxazines bearing heterocyclic side chains” (J Med Chem, 2010):
# Tests used:
# [1] = tested on: Mycobacterium tuberculosis; assay: Antimycobacterial activity against Mycobacterium tuberculosis H37Rv expressing pFCA-luxAB after 10 days by luminescence-based low-oxygen recovery assay; format: functional; conditions: 240 h
# [2] = tested on: Mycobacterium tuberculosis; assay: Antimycobacterial activity against Mycobacterium tuberculosis H37Rv after 16 to 24 hrs by microplate alamar blue assay; format: functional
# [3] = tested on: Vero; assay: Cytotoxicity against african green monkey Vero cells after 72 hrs by tetrazolium dye assay; format: cell-based; conditions: Chlorocebus sabaeus
# [4] = Solubility in water at pH 7 at 20 degC; format: physicochemical
# [5] = Metabolic stability in mouse liver microsomes after 1 hr at 37 degC; format: ADME, Microsome; conditions: liver microsomes, read-out: Stability
# [6] = Metabolic stability in human liver microsomes after 1 hr at 37 degC; format: ADME, Microsome; conditions: liver microsomes, read-out: Stability
# [7] = tested on: Mycobacterium tuberculosis; assay: Antitubercular effect in Mycobacterium tuberculosis infected BALB/c mouse assessed as CFU reduction at 100 mg/kg, po administered 5 days a week for 3 weeks relative to PA-824; format: functional
# [8] = Thermodynamic solubility in water at pH 7.4 at; format: physicochemical; conditions: water
Structure (SMILES),MIC [1] [µM],MIC [2] [µM],IC50 [3] [µM],solubility [4] [µg/mL],remaining at 1 h [5] [%],remaining at 1 h [6] [%],fold change (FC) [7],solubility thermodynamic [8] [µg/mL]
Cn1c(CO[C@@H]2COc3nc([N+](=O)[O-])cn3C2)cnc1-c1ccc(OC(F)(F)F)cc1,7.4,1.1,> 128,–,–,–,–,–
O=[N+]([O-])c1cn2c(n1)OC[C@@H](OCc1cc(-c3ccc(F)cc3)no1)C2,1.9,1.5,> 128,–,–,–,–,–
O=[N+]([O-])c1cn2c(n1)OC[C@@H](OCc1cn(-c3ccc(F)cc3)nn1)C2,6.9,1.2,> 128,–,–,–,–,–
O=[N+]([O-])c1cn2c(n1)OC[C@@H](OCc1cnn(-c3ccc(F)cc3)n1)C2,1.4,0.17,> 128,–,–,–,–,–
COc1ccc(-c2ccc(CO[C@@H]3COc4nc([N+](=O)[O-])cn4C3)s2)cn1,4.5,0.22,> 128,2.2,–,–,–,–
O=[N+]([O-])c1cn2c(n1)OC[C@@H](OCc1nnn(-c3ccc(C(F)(F)F)cc3)n1)C2,1.4,0.2,> 128,5,–,–,–,–
O=[N+]([O-])c1cn2c(n1)OC[C@@H](OCc1nnn(-c3ccc(OC(F)(F)F)cc3)n1)C2,1.3,0.035,> 128,–,81,–,–,–
O=[N+]([O-])c1cn2c(n1)OC[C@@H](OCc1ccc(-c3cncc(F)c3)s1)C2,2.3,0.87,> 128,–,–,–,–,–
Cn1c(CO[C@@H]2COc3nc([N+](=O)[O-])cn3C2)cnc1-c1ccc(C(F)(F)F)cc1,9.7,0.65,> 128,16,–,–,–,–
O=[N+]([O-])c1cn2c(n1)OC[C@@H](OCc1cnn(-c3ccc(C(F)(F)F)cc3)n1)C2,2.1,0.05,> 128,1,–,–,–,–
O=[N+]([O-])c1cn2c(n1)OC[C@@H](OCc1ccc(-c3ccc(F)cc3)s1)C2,1.9,0.05,> 128,–,–,–,–,–
O=[N+]([O-])c1cn2c(n1)OC[C@@H](OCc1cccc(-c3ccc(OC(F)(F)F)cc3)c1)C2,2.2,–,> 128,–,–,–,–,–
O=[N+]([O-])c1cn2c(n1)OC[C@@H](OCc1ccn(-c3ccc(C(F)(F)F)cc3)n1)C2,1,0.045,> 128,5.4,–,–,–,–
O=[N+]([O-])c1cn2c(n1)OC[C@@H](OCc1ccc(-c3ccc(OC(F)(F)F)cc3)s1)C2,2.6,0.85,> 128,–,–,–,–,–
O=[N+]([O-])c1cn2c(n1)OC[C@@H](OCc1cn(-c3ccc(OC(F)(F)F)cc3)nn1)C2,3.3,0.075,> 128,–,74,99,0.34,–
N#Cc1ccc(-c2ccc(CO[C@@H]3COc4nc([N+](=O)[O-])cn4C3)s2)cc1,1.7,0.055,> 128,–,54,85,0.02,–
O=[N+]([O-])c1cn2c(n1)OC[C@@H](OCc1ccc(-c3ccc(C(F)(F)F)cc3)s1)C2,1,0.16,> 128,0.7,–,–,–,–
N#Cc1ccc(-c2cccc(CO[C@@H]3COc4nc([N+](=O)[O-])cn4C3)c2)cc1,4.8,–,> 128,–,–,–,–,–
Cn1c(CO[C@@H]2COc3nc([N+](=O)[O-])cn3C2)cnc1-c1ccc(C#N)cc1,> 32,2.8,> 128,–,–,–,–,–

Structure (SMILES),MIC [1] [µM],MIC [2] [µM],IC50 [3] [µM],solubility [4] [µg/mL],remaining at 1 h [5] [%],remaining at 1 h [6] [%],fold change (FC) [7],solubility thermodynamic [8] [µg/mL]
O=[N+]([O-])c1cn2c(n1)OC[C@@H](OCc1csc(-c3ccc(F)cc3)n1)C2,2.8,0.35,> 128,–,–,–,–,–
COc1ccc(-c2ccc(CO[C@@H]3COc4nc([N+](=O)[O-])cn4C3)s2)cc1F,1,0.06,> 128,–,–,–,–,–
COc1ccc(-n2cc(CO[C@@H]3COc4nc([N+](=O)[O-])cn4C3)nn2)cn1,12,1.6,> 128,–,–,–,–,–
O=[N+]([O-])c1cn2c(n1)OC[C@@H](OCc1cccc(-c3ccc(F)cc3)c1)C2,3.8,–,> 128,1.8,–,–,–,–
O=[N+]([O-])c1cn2c(n1)OC[C@@H](OCc1cnn(-c3ccccc3)n1)C2,2.2,0.25,> 128,–,–,–,–,–
O=[N+]([O-])c1cn2c(n1)OC[C@@H](OCc1nnn(-c3ccccc3)n1)C2,5.7,1.2,> 128,–,–,–,–,–
O=[N+]([O-])c1cn2c(n1)OC[C@@H](OCc1csc(-c3ccc(OC(F)(F)F)cc3)n1)C2,1.5,1.2,> 128,–,–,–,–,–
O=[N+]([O-])c1cn2c(n1)OC[C@@H](OCc1ccc(-c3ccc(F)nc3)s1)C2,2.3,0.86,> 128,–,–,–,–,–
COc1ccc(-c2nc(CO[C@@H]3COc4nc([N+](=O)[O-])cn4C3)cs2)cc1F,1.7,0.2,> 128,–,–,–,–,–
COc1ccc(-c2cccc(CO[C@@H]3COc4nc([N+](=O)[O-])cn4C3)c2)cc1F,2.2,–,> 128,–,–,–,–,–
O=[N+]([O-])c1cn2c(n1)OC[C@@H](OCc1ccc(-c3cc(C(F)(F)F)ccn3)s1)C2,1.7,0.28,> 128,–,–,–,–,–
O=[N+]([O-])c1cn2c(n1)OC[C@@H](OCc1ccc(-c3ccc(OC(F)(F)F)cc3)cc1)C2,1.3,–,> 128,–,–,–,–,< 0.5
O=[N+]([O-])c1cn2c(n1)OC[C@@H](OCc1cn(-c3ccc(C(F)(F)F)cc3)nn1)C2,3.4,0.11,> 128,4.6,–,–,–,–
COc1ccc(-c2ncc(CO[C@@H]3COc4nc([N+](=O)[O-])cn4C3)n2C)cc1F,> 32,1.4,> 128,–,–,–,–,–
O=[N+]([O-])c1cn2c(n1)OC[C@@H](OCc1ccc(-c3ccc(OC(F)F)cc3)s1)C2,0.58,0.86,> 128,–,–,–,–,–
COc1ccc(-c2nc(CO[C@@H]3COc4nc([N+](=O)[O-])cn4C3)cs2)cn1,4.5,1.4,> 128,–,–,–,–,–
O=[N+]([O-])c1cn2c(n1)OC[C@@H](OCc1cnn(-c3ccc(F)cc3)c1)C2,3.9,0.8,> 128,–,–,–,–,–
O=[N+]([O-])c1cn2c(n1)OC[C@@H](OCc1cc(-c3ccc(C(F)(F)F)cc3)no1)C2,2.6,0.17,> 128,0.5,–,–,–,–
O=[N+]([O-])c1cn2c(n1)OC[C@@H](OCc1cccc(-c3ccc(C(F)(F)F)cc3)c1)C2,2.9,–,> 128,2.8,–,–,–,–

Structure (SMILES),MIC [1] [µM],MIC [2] [µM],IC50 [3] [µM],solubility [4] [µg/mL],remaining at 1 h [5] [%],remaining at 1 h [6] [%],fold change (FC) [7],solubility thermodynamic [8] [µg/mL]
COc1ccc(-c2cc(CO[C@@H]3COc4nc([N+](=O)[O-])cn4C3)on2)cn1,4.1,2,> 128,–,–,–,–,–
O=[N+]([O-])c1cn2c(n1)OC[C@@H](OCc1nnc(-c3ccc(F)cc3)o1)C2,17,2.4,> 128,108,–,–,–,–
N#Cc1ccc(-c2nc(CO[C@@H]3COc4nc([N+](=O)[O-])cn4C3)cs2)cc1,3.2,0.67,> 128,–,–,–,–,–
COc1ccc(-n2cc(CO[C@@H]3COc4nc([N+](=O)[O-])cn4C3)nn2)cc1F,8.7,0.86,> 128,–,–,–,–,–
Cn1nc(-c2ccc(C(F)(F)F)cc2)cc1CO[C@@H]1COc2nc([N+](=O)[O-])cn2C1,4.1,0.06,> 128,–,–,–,–,–
N#Cc1ccc(-c2cc(CO[C@@H]3COc4nc([N+](=O)[O-])cn4C3)on2)cc1,6.2,1.4,> 128,–,–,–,–,–
O=[N+]([O-])c1cn2c(n1)OC[C@@H](OCc1ccn(-c3ccc(F)cc3)n1)C2,7.2,0.11,> 128,–,–,–,–,–
O=[N+]([O-])c1cn2c(n1)OC[C@@H](OCc1nnn(-c3ccc(F)cc3)n1)C2,3.4,0.29,> 128,–,–,–,–,–
O=[N+]([O-])c1cn2c(n1)OC[C@@H](OCc1cnn(-c3ccc(OC(F)(F)F)cc3)n1)C2,1.6,0.03,> 128,–,–,–,–,–
N#Cc1ccc(-n2cc(CO[C@@H]3COc4nc([N+](=O)[O-])cn4C3)nn2)cc1,11,0.89,> 128,–,–,–,–,–
O=[N+]([O-])c1cn2c(n1)OC[C@@H](OCc1cc(-c3ccc(OC(F)(F)F)cc3)no1)C2,1.2,0.55,> 128,–,–,–,–,–
O=[N+]([O-])c1cn2c(n1)OC[C@@H](OCc1cnn(-c3ccc(OC(F)(F)F)cc3)c1)C2,1.8,0.15,> 128,–,64,87,1.5,–
O=[N+]([O-])c1cn2c(n1)OC[C@@H](OCc1cnn(-c3ccc(C(F)(F)F)cc3)c1)C2,2.3,0.54,> 128,4.9,–,–,–,–
Cn1c(CO[C@@H]2COc3nc([N+](=O)[O-])cn3C2)cnc1-c1ccc(F)cc1,31,1.9,> 128,–,–,–,–,–
COc1ccc(-c2cc(CO[C@@H]3COc4nc([N+](=O)[O-])cn4C3)on2)cc1F,2,1.1,> 128,–,–,–,–,–
O=[N+]([O-])c1cn2c(n1)OC[C@@H](OCc1ccc(-c3ccc(C(F)(F)F)nc3)s1)C2,4.4,0.05,> 128,8.9,77,85,2.3,–
O=[N+]([O-])c1cn2c(n1)OC[C@@H](OCc1csc(-c3ccc(C(F)(F)F)cc3)n1)C2,3,1.4,> 128,2.8,–,–,–,–
Cn1nc(-c2ccc(F)cc2)cc1CO[C@@H]1COc2nc([N+](=O)[O-])cn2C1,4,0.36,> 128,–,–,–,–,–
